{
  "source": "patent CN108992440A",
  "about": "“去甲斑蝥素在制备治疗破骨细胞过度激活相关疾病药物中的应用” (priority 2018, dated 2018)",
  "type_in_all_cases": "cell-based, mouse",
  "key": {"[1]": {"experiment": "MTT assay of the effect of NCTD on viability of bone-marrow-derived macrophages", "settings": "mouse, bone marrow macrophages; MTT, BMMs, 48 h; read-out: concentration from which BMM activity begins to be affected"}, "[2]": {"system": "BMM cells [BMMs]", "experiment": "MTT assay of the effect of NCTD on viability of bone-marrow-derived macrophages"}, "[3]": {"system": "osteoclasts [破骨细胞]", "experiment": "TRAP staining: RANKL-induced osteoclast differentiation from BMMs", "settings": "RANKL induction 5 days, 0, 1, 2.5, 5, 10 μM NCTD"}, "[4]": {"system": "osteoclasts [破骨细胞]", "experiment": "TRAP staining: stage of osteoclast formation inhibited by NCTD", "settings": "5 μM NCTD"}, "[5]": {"system": "BMM cells [BMMs]", "experiment": "Annexin V-FITC/PI flow cytometry: apoptosis of BMMs", "settings": "BMMs, 0, 2.5, 5, 10 μM NCTD, 48 h"}, "[6]": {"system": "CTSK", "experiment": "Q-PCR of osteoclast marker gene: CTSK", "settings": "RANKL 100 ng/ml, M-CSF 30 ng/ml, 5 days"}, "[7]": {"system": "CTR", "experiment": "Q-PCR of osteoclast marker gene: CTR", "settings": "RANKL 100 ng/ml, M-CSF 30 ng/ml, 5 days"}, "[8]": {"system": "TRAP", "experiment": "Q-PCR of osteoclast marker gene: TRAP", "settings": "RANKL 100 ng/ml, M-CSF 30 ng/ml, 5 days"}, "[9]": {"system": "NFATc1", "experiment": "Q-PCR of osteoclast marker gene: NFATc1", "settings": "RANKL 100 ng/ml, M-CSF 30 ng/ml, 5 days"}, "[10]": {"system": "c-Fos", "experiment": "Q-PCR of osteoclast marker gene: c-Fos", "settings": "RANKL 100 ng/ml, M-CSF 30 ng/ml, 5 days"}, "[11]": {"system": "extracellular signal-regulated kinase (ERK) [细胞外信号调节激酶(ERK)]", "experiment": "Western blot: RANKL-stimulated ERK phosphorylation", "settings": "BMMs, RANKL 15 min; 0, 2.5, 5, 10 μM NCTD"}, "[12]": {"system": "p38 kinase [p38激酶]", "experiment": "Western blot: RANKL-stimulated p38 phosphorylation", "settings": "BMMs, RANKL 15 min; 0, 2.5, 5, 10 μM NCTD"}, "[13]": {"system": "c-Jun N-terminal kinase (JNK) [c-Jun氨基端激酶(JNK)]", "experiment": "Western blot: JNK (MAPK family)", "settings": "BMMs"}, "[14]": {"system": "IκBα", "experiment": "IκBα degradation (NF-κB signalling pathway)"}, "[15]": {"settings": "pretreatment (12 h before RANKL)"}},
  "data": [
    {"smiles": "O=C1OC(=O)C2C3CCC(O3)C12", "note": "(stereo not shown) [NCTD, 去甲斑蝥素]", "values": [
      {"measurement": "MCC at 48 h", "setting": "[1]", "result": 20, "unit": "µM"},
      {"measurement": "IC50", "setting": "[2]; Mus musculus, Macrophage, MTT, BMMs, 48 h, 0-320 μM NCTD, GraphPad Prism, read-out: half-inhibitory concentration (IC50) on BMMs", "result": 59.7, "unit": "µM"},
      {"measurement": "toxicity to BMM cells", "setting": "[2]; at 10 μM and below", "result": "无毒性作用"},
      {"measurement": "osteoclast formation (osteoclast number and area)", "setting": "[3]", "result": "能够明显抑制破骨细胞的生成,且呈剂量依赖性关系"},
      {"measurement": "osteoclast number and area", "setting": "[4]; early treatment (first 2 days of induction)", "result": "能够显著改变破骨细胞数量和面积"},
      {"measurement": "osteoclast area", "setting": "[4]; late treatment (last 3 days of induction)", "result": "对破骨细胞面积没有明显影响"},
      {"measurement": "osteoclast formation", "setting": "[4]; [15]", "result": "在一定程度上可抑制破骨细胞形成"},
      {"measurement": "osteoclast number and size vs control", "setting": "[4]; [15]", "result": "均有明显差异"},
      {"measurement": "inhibition of osteoclast differentiation", "setting": "[4]; pretreatment + whole-course treatment", "result": "对破骨细胞分化抑制最为明显"},
      {"measurement": "inhibition of osteoclast differentiation", "setting": "[4]; whole-course treatment (5 days)", "result": "对破骨细胞分化抑制最为明显"},
      {"measurement": "apoptosis", "setting": "[5]", "result": "不会引起细胞凋亡"},
      {"measurement": "CTSK expression", "setting": "[6]", "result": "浓度依赖地抑制"},
      {"measurement": "CTR expression", "setting": "[7]", "result": "浓度依赖地抑制"},
      {"measurement": "TRAP expression", "setting": "[8]", "result": "浓度依赖地抑制"},
      {"measurement": "NFATc1 expression", "setting": "[9]", "result": "浓度依赖地抑制"},
      {"measurement": "c-Fos expression", "setting": "[10]", "result": "浓度依赖地抑制"},
      {"measurement": "ERK phosphorylation", "setting": "[11]", "result": "明显受到抑制"},
      {"measurement": "p38 phosphorylation", "setting": "[12]", "result": "明显受到抑制"},
      {"measurement": "inhibition of JNK", "setting": "[13]; RANKL 15 min, 0, 2.5, 5, 10 μM NCTD", "result": "没有明显抑制作用"},
      {"measurement": "JNK phosphorylation", "setting": "[13]; RANKL-stimulated", "result": "没有影响"},
      {"measurement": "IκBα degradation", "setting": "[14]; BMMs, RANKL-stimulated", "result": "没有抑制IκBα的降解"},
      {"measurement": "RANKL-activated NF-κB signalling pathway", "setting": "[14]; by IκBα degradation", "result": "没有明显影响"}
    ]}
  ]
}
